Test results: US20250034216A1, “STEREOSELECTIVE COVALENT LIGANDS FOR ONCOGENIC AND IMMUNOLOGICAL PROTEINS” (The Scripps Research Institute, priority 2021, published 2025)

Experiments:
Experiment in all cases: IA-DTB cysteine engagement
Type in all cases: binding
[1] = target: T1, CBX1_C60 (Homo sapiens, UniProt P83916); conditions: 22Rv1 cells, 20 μM probe, 1 h, relative to DMSO
T1 construct: endogenous in cells; host or cells: 22Rv1
Summary of the method: (§1)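 Read-out is TMT-based cysteine engagement, expressed as each reporter ion intensity divided by the average of the DMSO channels. Before that, probe-treated cell lysates were capped with IA-DTB, digested, enriched on streptavidin and TMT-tagged. PSMs with DMSO summed intensity <10,000 or DMSO CV >0.5 were excluded.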

[2] = target: T2, NT5DC2_C504 (Homo sapiens, UniProt Q9H857); conditions: 22Rv1 cells, 20 μM probe, 1 h, relative to DMSO
T2 construct: endogenous in cells; host or cells: 22Rv1
T2 sequence (Q9H857 1-520): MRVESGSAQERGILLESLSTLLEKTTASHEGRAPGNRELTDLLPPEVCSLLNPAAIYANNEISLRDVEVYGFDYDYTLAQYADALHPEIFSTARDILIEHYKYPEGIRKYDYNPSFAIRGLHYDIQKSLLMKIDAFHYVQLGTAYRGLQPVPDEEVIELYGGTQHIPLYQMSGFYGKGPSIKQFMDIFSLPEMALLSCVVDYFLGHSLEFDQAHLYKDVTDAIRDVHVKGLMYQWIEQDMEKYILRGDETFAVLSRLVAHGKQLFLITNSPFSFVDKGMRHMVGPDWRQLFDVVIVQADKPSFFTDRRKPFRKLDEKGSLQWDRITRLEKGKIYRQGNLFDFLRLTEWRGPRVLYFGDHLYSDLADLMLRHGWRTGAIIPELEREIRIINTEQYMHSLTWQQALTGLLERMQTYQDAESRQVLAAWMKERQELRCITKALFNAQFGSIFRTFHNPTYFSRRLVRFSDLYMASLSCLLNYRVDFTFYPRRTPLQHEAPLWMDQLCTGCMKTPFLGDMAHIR
Summary of the method: as §1

[3] = target: T3, PSME1_C22 (Homo sapiens, UniProt Q06323); conditions: 22Rv1 cells, relative to DMSO; for % engagement PSME1_C22: 20 μM probe, 1 h; for % engagement PSME1_22: 5 μM probe, 1 h (FIG. 5B)
T3 construct: endogenous in cells; host or cells: 22Rv1
Summary of the method: as §1

[4] = target: T4, STRBP_C142 (Homo sapiens, UniProt Q96SI9); conditions: 22Rv1 cells, 20 μM probe, 1 h, relative to DMSO
T4 construct: endogenous in cells; host or cells: 22Rv1
T4 sequence (Q96SI9 1-672): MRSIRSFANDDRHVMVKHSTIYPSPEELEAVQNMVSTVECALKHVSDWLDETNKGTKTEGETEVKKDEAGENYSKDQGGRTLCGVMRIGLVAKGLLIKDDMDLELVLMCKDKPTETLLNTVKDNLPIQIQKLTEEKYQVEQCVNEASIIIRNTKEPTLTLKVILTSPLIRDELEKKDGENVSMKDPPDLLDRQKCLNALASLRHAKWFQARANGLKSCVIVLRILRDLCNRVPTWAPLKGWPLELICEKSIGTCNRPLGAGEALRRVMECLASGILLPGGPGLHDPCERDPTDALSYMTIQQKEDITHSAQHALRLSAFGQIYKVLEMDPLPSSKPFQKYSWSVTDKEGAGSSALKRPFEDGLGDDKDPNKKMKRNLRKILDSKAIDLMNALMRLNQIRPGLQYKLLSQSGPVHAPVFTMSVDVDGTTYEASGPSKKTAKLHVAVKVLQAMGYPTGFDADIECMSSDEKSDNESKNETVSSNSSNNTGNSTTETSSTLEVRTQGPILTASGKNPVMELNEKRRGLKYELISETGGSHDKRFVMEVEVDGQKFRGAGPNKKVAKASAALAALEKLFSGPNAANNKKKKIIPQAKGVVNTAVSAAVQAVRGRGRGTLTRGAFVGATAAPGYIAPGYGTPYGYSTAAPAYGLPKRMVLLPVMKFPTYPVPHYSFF
Summary of the method: as §1

T3 sequence (Q06323 whole entry): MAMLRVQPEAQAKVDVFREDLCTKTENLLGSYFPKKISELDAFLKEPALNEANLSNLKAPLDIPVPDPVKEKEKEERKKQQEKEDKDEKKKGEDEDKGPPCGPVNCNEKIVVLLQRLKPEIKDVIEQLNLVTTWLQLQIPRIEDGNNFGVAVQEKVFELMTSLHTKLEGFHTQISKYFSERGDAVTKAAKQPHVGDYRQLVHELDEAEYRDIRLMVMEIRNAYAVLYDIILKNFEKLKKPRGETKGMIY
T1 sequence (P83916 whole entry): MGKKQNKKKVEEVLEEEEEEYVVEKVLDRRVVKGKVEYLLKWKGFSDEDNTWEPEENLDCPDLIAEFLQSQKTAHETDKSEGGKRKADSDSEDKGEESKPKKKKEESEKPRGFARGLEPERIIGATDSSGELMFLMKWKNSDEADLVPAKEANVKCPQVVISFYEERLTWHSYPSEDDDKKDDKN

SMILES	% engagement CBX1_C60 [1] [%]	% engagement NT5DC2_C504 [2] [%]	% engagement PSME1_C22 [3] [%]	% engagement STRBP_C142 [4] [%]	% engagement PSME1_22 [3] [%]
C=CC(=O)N1C[C@H](c2ccc(Br)cc2)[C@@H]1C(=O)Nc1cccc2cccnc12 [MY-1B, (2R,3S)-1-acryloyl-3-(4-bromophenyl)-N-(quinolin-8-yl)azetidine-2-carboxamide]	−14.5	75	67.75	8.5	44.38
CC#CC(=O)N1C[C@H](c2ccc(Br)cc2)[C@@H]1C(=O)Nc1cccc2cccnc12 [MY-45B, (2R,3S)-3-(4-bromophenyl)-1-(but-2-ynoyl)-N-(quinolin-8-yl)azetidine-2-carboxamide]	–	–	–	–	69.50
C=CC(=O)N1C[C@@H](c2ccc(Br)cc2)[C@H]1C(=O)Nc1cccc2cccnc12 [MY-1A, (2S,3R)-1-acryloyl-3-(4-bromophenyl)-N-(quinolin-8-yl)azetidine-2-carboxamide]	−11.5	85.5	−2.25	88.25	–

Other lines, results leading:

% engagement CBX1_C60 [1] [%]	% engagement NT5DC2_C504 [2] [%]	% engagement PSME1_C22 [3] [%]	% engagement STRBP_C142 [4] [%]	% engagement PSME1_22 [3] [%]	SMILES
75	59	−31.75	7.75	–	C=CC(=O)N1C[C@H](c2ccc(Br)cc2)[C@H]1C(=O)Nc1cccc2cccnc12 [MY-3B, (2S,3S)-1-acryloyl-3-(4-bromophenyl)-N-(quinolin-8-yl)azetidine-2-carboxamide]
14.5	54.5	−14.5	16.25	–	C=CC(=O)N1C[C@H](c2ccc(Br)cc2)[C@H]1C(=O)Nc1cccc2cccnc12 [MY-3A, (2S,3S)-1-acryloyl-3-(4-bromophenyl)-N-(quinolin-8-yl)azetidine-2-carboxamide]
